Results from paper PMC4349960, “[^18F]FE@SUPPY: a suitable PET tracer for the adenosine A3 receptor? An in vivo study in rodents” (European Journal of Nuclear Medicine and Molecular Imaging, 2015).
“And” between values parts separate entries of the source, which are not always exact repeats. Equal values may be shown once. “Also recorded” adds a separate entry of the source.

Key:
[1] = parameters: method as in doi:10.2174/1876388X00901010015; conditions: cited from earlier work
[2] = In vitro plasma stability, human plasma; format: in vitro ADME; conditions: 0-120 min
Experimental: (§1) Experiments were conducted following a standard protocol. Briefly, [^18F]FE@SUPPY was added to lithium-heparinized human or rat plasma and after predetermined times (0, 60 and 120 min), the incubation mixture was eluted through a preconditioned SPE cartridge. The washed and newly eluted eluate solutions were injected into the radio-HPLC system (HPLC system as described in the section Ex vivo stability). The stationary phase was an analytical HPLC column LiChrospher LICHROCART® RP-18e (5 μm), 125 × 4 mm precolumn, and the mobile phase consisted of sodium citrate tribasic dehydrate (buffered at 0.034 M, pH 2.5)/acetonitrile 32:68 at a flow rate of 2 mL/min. Samples were incubated with a Thermomixer Compact from Eppendorf (Vienna, Austria) and centrifuged with a Universal 30 RF centrifuge from Hettich (Tuttlingen, Germany).

[3] = Ex vivo stability/metabolism in rat plasma and brain after pretreatment; parameters: species or system rats; conditions: for Brain to blood uptake ratio / %ID/g at 60 min, Blood (plasma) / %ID/g at 60 min, Brain / Unchanged [^18F]FE@SUPPY at 60 min, Blood (plasma) / Unchanged [^18F]FE@SUPPY at 60 min, Brain: rats
Experimental: To determine the influence of the four treatments (vehicle, MRS1523, FE@SUPPY, TQD) on uptake of [^18F]FE@SUPPY, stability was assessed in plasma and brain 60 min after tracer injection. Final blood samples (3 mL) were collected in heparin-buffered tubes, rat brains were washed with ice-cold water and homogenized in 0.9 % aqueous NaCl solution (1 mL) using an IKA T10 basic Ultra-turrax (IKA Laboratory Equipment, Staufen, Germany). […] Sample clean-up was performed by vortexing plasma with the equivalent amount of methanol/acetonitrile (9:1) for 1 min and by subsequent ultracentrifugation (10,000 rpm, 5 min) to remove precipitated proteins. The supernatants obtained were analysed by radio-HPLC (Agilent, Boeblingen, Germany) equipped with a series 1100 autosampler, a series 1200 quaternary pump, a series 1200 diode array detector and a lead-shielded BGO radiodetector. A Chromolith® Performance RP-18e (100 × 4.6 mm, 5 μm) column with a Chromolith® Performance RP-18e (4 x4 mm, 5 μm) precolumn was eluted at a flow rate of 2 mL/min using a mobile phase consisting of 60 % acetonitrile and 40 % water/acetic acid 97.5:2.5 and 32 mM ammonium acetate, pH 3.5. UV detection was performed at a wavelength of 254 nm. The retention time of [^18F]FE@SUPPY was 4.6 – 5.9 min (UV detection and radiodetection).

A3R = tested on: A3R; parameters: method as in PMID 20447552; conditions: cited from earlier work
P-gp = experiment: Small-animal PET in rats: efflux (P-gp) inhibition; format: in vivo
Excerpt: A microPET Focus220 scanner (Siemens, Medical Solutions) was used for the experiments. […] The resolution of the reconstructed images (filtered back projection) was 1.3 mm (full-width at half-maximum) in the central field of view and remained under 2 mm within the central 5 cm diameter field of view [15]. For PET imaging two groups of animals (rats and xenografted mice) were investigated. Rats were divided into four groups.
Anaesthetized animals were positioned in the imaging chamber of the microPET scanner, which was kept at 38 °C throughout the experiment. […]
For all PET scans (rats and xenografted mice), list mode data were acquired with an energy window of 350 – 750 keV (rats) or 250 – 750 keV (mice) and a 6-ns timing window. Before each PET scan, a transmission scan using a ^57Co point source was recorded over 10 min. […] A calibration factor for converting units of microPET images into absolute radioactivity concentration units was first generated by imaging a phantom filled with a known concentration of [^18F]FDG.
Rat brains were manually outlined on multiple planes of the PET summation images using the image analysis software PMOD 3.1 (Pmod Ltd, Zürich, Switzerland) or Amide [18]. […] To facilitate comparison of TACs of different animals, radioactivity concentrations were normalized to dose and weight and expressed as standardized uptake value (SUV, %ID/cm^3 or %ID/g). […]

[4] = In vitro plasma stability, rat plasma; format: in vitro ADME
Experimental: as §1

[5] = pretreatment unlabelled FE@SUPPY

Ex vivo metabolites in rats (where found) ([3]; 60 min after tracer injection): Blood and brain
Brain to blood uptake ratio ([3]; baseline): 5.2
%ID/g at 60 min, Brain ([3]; pretreatment DMSO): 0.1132 ± 0.0002 %ID/g
Unchanged [^18F]FE@SUPPY at 60 min, Blood (plasma) ([3]; pretreatment DMSO): 25.8 ± 5.3% and 25.81 ± 5.3%
Unchanged [^18F]FE@SUPPY at 60 min, Brain ([3]; pretreatment DMSO): 43.7 ± 9.5%
Brain to blood uptake ratio ([3]; pretreatment FE@SUPPY): 7.9
%ID/g at 60 min, Blood (plasma) ([3]; pretreatment MRS1523): 0.0145 ± 0.002 %ID/g
%ID/g at 60 min, Brain ([3]; pretreatment MRS1523): 0.0918 ± 0.0001 %ID/g
Unchanged [^18F]FE@SUPPY at 60 min, Blood (plasma) ([3]; pretreatment MRS1523): 26.5 ± 1.4% and 26.54 ± 1.4%
Unchanged [^18F]FE@SUPPY at 60 min, Brain ([3]; pretreatment MRS1523): 37.8 ± 4.3% and 37.75 ± 4.3%
%ID/g at 60 min, Blood (plasma) ([3]; pretreatment TQD): 0.0214 ± 0.004 %ID/g
%ID/g at 60 min, Brain ([3]; pretreatment TQD): 0.1507 ± 0.0005 %ID/g
Unchanged [^18F]FE@SUPPY at 60 min, Blood (plasma) ([3]; pretreatment TQD): 39.9 ± 4.7% and 39.87 ± 4.7%
Unchanged [^18F]FE@SUPPY at 60 min, Brain ([3]; pretreatment TQD): 55.2 ± 7.0% and 55.21 ± 7.0%
%ID/g at 60 min, Blood (plasma) [3, 5]: 0.0160 ± 0.002 %ID/g
%ID/g at 60 min, Brain [3, 5]: 0.1273 ± 0.0000 %ID/g
Unchanged [^18F]FE@SUPPY at 60 min, Blood (plasma) [3, 5]: 32.4 ± 5.6%
Unchanged [^18F]FE@SUPPY at 60 min, Brain [3, 5]: 49.6 ± 9.4% and 49.64 ± 9.4%
peak brain activity (P-gp; TQD-treated group (15 mg/kg, 60 min before tracer)): 1.53 ± 0.01 SUV
peak brain activity (P-gp; untreated group): 1.56 ± 0.22 SUV
radioactivity from metabolites in rat plasma ([4]; 60 min): 18.7 ± 3%
radioactivity from metabolites in rat plasma ([4]; 120 min): 35.0 ± 4%
radioactive metabolites in rat plasma over the observation period ([4]; observation period of 120 min): 19 – 35%
Compound: CCSC(=O)c1c(CC)nc(-c2ccccc2)c(C(=O)OCC[18F])c1CC [[^18F]FE@SUPPY, 5-(2-[^18F]fluoroethyl)-2,4-diethyl-3-(ethylsulfanylcarbonyl)-6-phenylpyridine-5-carboxylate]
logP assessment [1]: high lipophilicity
HPLClogD^7.4 ([1]; pH 7.4): 4.04
stability in human plasma [2]: no degradation; also recorded: no metabolites were observed; also recorded: Stable over 120 min in human plasma
%ID/g at 60 min, Blood (plasma) ([3]; pretreatment DMSO): 0.022 ± 0.003 %ID/g and 0.0216 ± 0.003 %ID/g
Autoradiography in humans and rats (A3R): High selectivity; FE@SUPPLY comparable with MRS1523 [12]
